Consider 2 compounds from EP1862459A1, “Novel heterocyclic compounds” (GLAXO GROUP LIMITED, priority 2006, dated 2007).

This data set in a line: physchem. Format: physicochemical. The note with it: fassif, pH 6.8, Solubility in FaSSIF µg/ml. As to the method: Compound solubility determination
An amount of 3 mg solid compound with LC-MS purity ≥ 95% was required. This amount was split between 3 different glass vials (1.8 ml volume each), placing 1 mg compound into each one.
Organic solvents of HPLC grade were used. Ultra pure water (Milli-Q grade) was used. Buffers were prepared with ultra pure water and filtered using 0.45 […] cameo filters. The compositions of each solvent employed in this assay are described below (part III).
For each of the three vial samples prepared as described above, in which the amount of compound was totally dissolved, the following procedure was subsequently carried out: • a) A small amount (approx. 0.1mg) of additional solid compound was added to the vial to maintain an excess of the compound in the mixture in the form of undissolved solid. • b) The samples were magnetically stirred for 24 hr. If required, additional solid compound (0.1mg) was added to maintain excess of it and then the samples were stirred again. • c) Then the samples were filtered (Millipore Milex filters nylon 0.2 um) and three aliquots were taken (one from each of the three vials) and analysed by LC-MS. • d) The pH of the final solution in each sample was measured with a pH-meter (WTW pH330i and a pH-electrode Sentix 41).
All filtered aliquots were analysed by LC-MS. […]

The structures appear in SMILES notation. Values after ≈ are worked out from the molar mass of the structure shown.

For `Cc1[nH]c(C=NO)c(-c2ccc(Oc3ccc(OC(F)(F)F)cc3)cc2)c(=O)c1Cl` [Example 5, 5-Chloro-6-methyl-4-oxo-3-[4-({4-[(trifluoromethyl)oxy]phenyl}oxy)phenyl]-1,4-dihydro-2-pyridinecarbaldehyde oxime], the solubility – broadly, the concentration that dissolves in the medium under given conditions – lay in the range of 5 to 10 µg/mL (≈ 11.4 to 22.8 µM).
The value for `CC1=C(Cl)C(=O)C(CO)(c2ccc(Oc3ccc(OC(F)(F)F)cc3)cc2)CN1` (centres unmarked) [Example 1, 3-Chloro-5-(hydroxymethyl)-2-methyl-5-[4-({4-[(trifluoromethyl)oxy]phenyl}oxy)phenyl]-4(1H)-pyridinone] was 1 to 5 µg/mL (≈ 2.34 to 11.7 µM).
